# Test results reported in patent US20130288897A1, “SYNERGISTIC PESTICIDAL COMPOSITIONS” (Dow AgroSciences LLC, priority 2012, published 2013).
# Values joined by “and” are separate entries in the source; they are usually repeats but may differ in a detail not shown here. Identical values can stand only once.
# Columns and labels:
# Assay type in all cases: in vivo
# [1] = test system: cotton aphid (CA) Aphis gossypii; test: Cotton aphid track-sprayer test on cotton: Compound A or imidacloprid with Glyphomax Plus (glyphosate) and AMS (Example XV); settings: Rep 1-5
# Protocol: (§1) Glyphosate resistant cotton plants (Gossypium hirsutum, cv ‘DP493’) were trimmed to 1 true leaf and infested with mixed stages of cotton aphid (CA) Aphis gossypii 24 h prior to application. Mixed developmental stage CA were infested onto the upper surface of each treated leaf by transferring infested foliage from an insectary colony. Each plant was infested with approximately equal numbers of CA based on visual estimation of aphid density on the infested material. Infested plants were held in the growth chamber (L:D 16:8 and 25° C.). Glyphosate (Glyphomax Plus, Dow AgroSciences, LLC, Indianapolis, Ind.) was mixed with water at a rate equivalent to 32 oz/Ac/20 gallons. […] High rate Compound A concentrations were created by diluting Compound A technical material with acetone to achieve a 10 ppm solution. […] When applied through a track sprayer calibrated to 200 L/Ha these concentrations generated use rates of 0.2, 0.04 and 0.008 g/Ha. […] Nozzle height above the canopy was held constant at ca. 30 cm. Plants were evaluated after 3 days from the time of infestation by counting all live cotton aphids on each plant.
# For the purposes of this experiment, the compositions having lower rates of the insecticide were not analyzed. Percent control for all treatments was calculated using the rep average for the untreated plants. […] For all tests, measured efficacy (% Control) data were compared to calculated Colby values (Colby, S. R. 1967. Calculating Synergistic and Antagonistic Responses of Herbicide Combinations. Weeds 15:20-22) using a 2 sided T-test (Minitab). […] The formula used to calculate the Colby value for mixtures of Compound A and either herbicide or AMS was:
# The formula was adapted for compositions including Compound A, herbicide and AMS as follows: […]
# [2] = test system: cotton aphid (CA) Aphis gossypii; test: Cotton aphid track-sprayer test on cotton: Compound A or imidacloprid with glufosinate (Liberty) and AMS (Example XVII); settings: for % control / % control Negatives to zero / Colby Predicted Values: Rep 1-6
# Protocol: as §1, with “Glufosinate (Liberty®, Bayer CropScience, Monheim am Rhein, Germany)” for “Glyphosate (Glyphomax Plus, Dow AgroSciences, LLC, Indianapolis, Ind.)”, “5 ml/L (0.4 qt/Ac).” for “32 oz/Ac/20 gallons.”, “When applied through a track sprayer calibrated to 200 L/Ha these concentrations generated use rates of 0.2, 0.04 and 0.008 g/Ha.” left out
# TABLE 6 contains the calculated Colby values for combinations of treatments as well as the outcome of statistical evaluations between predicted (Colby) and actual measured values. These T-test statistics were only calculated for the 0.2 and 0.05 g/Ha rates. […] These same trends were apparent when Compound A was applied with both glufosinate and AMS.
# [3] = test system: cotton aphid (CA) Aphis gossypii; test: Cotton aphid track-sprayer test on cotton: Compound A or imidacloprid with Durango (glyphosate) or Durango Blank and AMS (Example XVI); settings: for % Control (Negatives to zero) Ave / % control Ave / Colbv predicted values Ave: average of 5 reps
# Protocol: as §1, with “(Durango®,” for “(Glyphomax Plus,”, “15 ml/L (1.2 qt/Ac). […] A glyphosate free formulation of Durango® was prepared using these same mixing instructions.” for “32 oz/Ac/20 gallons.”, “When applied through a track sprayer calibrated to 200 L/Ha these concentrations generated use rates of 0.2, 0.04 and 0.008 g/Ha.” left out
# […] Percent control for all treatments was calculated using the rep average for the untreated plants.
# [4] = 0.2 g insecticide/Ha with Glyphomax Plus 0.0125 ml/ml + AMS 18 mg/ml
# [5] = 0.2 g insecticide/Ha with Glyphomax Plus 0.0125 ml/ml
# [6] = 0.0125 g In./Ha + glufosinate 0.005 ml/ml + AMS 18 mg/ml
# [7] = 0.05 g In./Ha + glufosinate 0.005 ml/ml
# [8] = 0.05 g In./Ha + glufosinate 0.005 ml/ml + AMS 18 mg/ml
# [9] = 0.2 g In./Ha + glufosinate 0.005 ml/ml
# [10] = 0.2 g In./Ha + glufosinate 0.005 ml/ml + AMS 18 mg/ml
# [11] = 0.2 g In./Ha, no glufosinate, no AMS
# [12] = 0.0125 g insecticide/Ha with Durango 0.015 ml/ml + AMS 18 g/L
# [13] = 0.0125 g insecticide/Ha with Durango 0.015 ml/ml
# [14] = 0.0125 g insecticide/Ha with Durango Blank 0.015 ml/ml + AMS 18 g/L
# [15] = 0.0125 g insecticide/Ha with Durango Blank 0.015 ml/ml
# [16] = 0.05 g insecticide/Ha with Durango 0.015 ml/ml + AMS 18 g/L, Rep 1-5
# [17] = 0.05 g insecticide/Ha with Durango 0.015 ml/ml + AMS 18 g/L
# [18] = 0.05 g insecticide/Ha with Durango 0.015 ml/ml
# [19] = 0.05 g insecticide/Ha with Durango Blank 0.015 ml/ml + AMS 18 g/L
# [20] = 0.05 g insecticide/Ha with Durango Blank 0.015 ml/ml
# [21] = 0.2 g insecticide/Ha with Durango 0.015 ml/ml + AMS 18 g/L, Rep 1-5
# [22] = 0.2 g insecticide/Ha with Durango 0.015 ml/ml + AMS 18 g/L
# [23] = 0.2 g insecticide/Ha with Durango 0.015 ml/ml, Rep 1-5
# [24] = 0.2 g insecticide/Ha with Durango 0.015 ml/ml
# [25] = 0.2 g insecticide/Ha with Durango Blank 0.015 ml/ml + AMS 18 g/L, Rep 1-5
# [26] = 0.2 g insecticide/Ha with Durango Blank 0.015 ml/ml + AMS 18 g/L
# [27] = 0.2 g insecticide/Ha with Durango Blank 0.015 ml/ml
smiles,measurement,setting,value
"CC(c1ccc(C(F)(F)F)nc1)S(C)(=O)=NC#N (stereo not shown) [Compound A, [1-(6-Trifluoromethylpyridin-3-yl)ethyl](methyl)-oxido-λ^4-sulfanylidenecyanamide]",% control Negatives to zero,[1]; [4],94.9% and 100.0%
same,Calculated Colby values,[1]; [4],71.7 and 78.5 and 75.1 and 77.5 and 71.8
same,percent control,[1]; [4],100.0% and 94.9%
same,% control Negatives to zero,[1]; [5],96.2% and 100.0% and 91.7% and 98.1%
same,percent control,[1]; [5],100.0% and 91.7% and 98.1% and 96.2%
same,Calculated Colby values,"[1]; 0.2 g insecticide/Ha with Glyphomax Plus 0.0125 ml/ml, expected additive control",71.7 and 78.5 and 75.1 and 75.3 and 69.3
same,CA Counts,"[1]; 0.2 g insecticide/Ha, no herbicide, no AMS, live aphids per plant after 3 days",24 and 20 and 12 and 15 and 13
same,percent control,"[1]; 0.2 g insecticide/Ha, no herbicide, no AMS, vs rep average of untreated plants",71.7% and 78.5% and 75.1% and 75.3% and 69.3%
same,% control AVE,[2]; 0.0125 g In./Ha + glufosinate 0.005 ml/ml,57.9%
same,% control AVE,[2]; [6],85.5%
same,Colby Predicted Values Ave,"[2]; 0.0125 g In./Ha, combination with glufosinate",48.7
same,Colby Predicted Values Ave,"[2]; 0.0125 g In./Ha, combination with glufosinate and AMS",56.8
same,% control AVE,"[2]; 0.0125 g In./Ha, no glufosinate, no AMS",22.9%
same,% control AVE,[2]; [7],82.1%
same,% control AVE,[2]; [8],91.8%
same,Colby Predicted Values Ave,"[2]; 0.05 g In./Ha, combination with glufosinate",63.4
same,Colby Predicted Values Ave,"[2]; 0.05 g In./Ha, combination with glufosinate and AMS",67.4
same,% control AVE,"[2]; 0.05 g In./Ha, no glufosinate, no AMS",60.2%
same,% control AVE,[2]; [9],95.3%
same,% control AVE,[2]; [10],96.6%
same,Colby Predicted Values Ave,"[2]; 0.2 g In./Ha, combination with glufosinate",85.7
same,Colby Predicted Values Ave,"[2]; 0.2 g In./Ha, combination with glufosinate and AMS",87.7
same,% control AVE,[2]; [11],87.0%
same,% control,[2]; [6],94.7% and 89.7% and 68.6% and 90.7% and 83.8% and 95.5%
same,% control Negatives to zero,[2]; [6],94.7% and 89.7% and 68.6% and 90.7% and 83.8% and 93.9%
same,% control,[2]; [7],81.3% and 80.2% and 72.9% and 99.2% and 77.0% and 89.4%
same,% control Negatives to zero,[2]; [7],81.3% and 80.2% and 72.9% and 99.2% and 77.0% and 89.4%
same,% control,[2]; [8],89.3% and 96.6% and 77.1% and 97.5% and 98.6% and 80.3%
same,% control Negatives to zero,[2]; [8],89.3% and 96.6% and 77.1% and 97.5% and 98.6% and 80.3%
same,% control,[2]; [9],97.3% and 95.7% and 93.2% and 94.6% and 86.4%
same,% control Negatives to zero,[2]; [9],97.3% and 95.7% and 93.2% and 94.6% and 86.4%
same,% control,[2]; [10],98.7% and 94.0% and 94.3% and 97.5% and 98.6% and 93.9%
same,% control Negatives to zero,[2]; [10],98.7% and 94.0% and 94.3% and 97.5% and 98.6% and 93.9%
same,Colby Predicted Values,"[2]; 0.2 g In./Ha, first block of lines (combination with glufosinate)",77.3 and 91.2 and 95.9 and 90.1 and 91.9 and 68.2
same,% control,[2]; [11],77.3% and 87.9% and 91.4% and 86.4% and 91.9% and 68.2%
same,Colby Predicted Values,"[2]; 0.2 g In./Ha, second block of lines (combination with glufosinate and AMS)",90.0 and 93.9 and 95.3 and 87.0 and 91.9 and 68.2
same,% Control (Negatives to zero) Ave,[3]; [12],23.8%
same,% control Ave,[3]; [12],11.7%
same,Colbv predicted values Ave,[3]; [12],48.0
same,% Control (Negatives to zero) Ave,[3]; [13],17.4%
same,% control Ave,[3]; [13],0.5%
same,Colbv predicted values Ave,[3]; [13],36.6
same,% Control (Negatives to zero) Ave,[3]; [14],26.5%
same,% control Ave,[3]; [14],25.1%
same,Colbv predicted values Ave,[3]; [14],56.2
same,% Control (Negatives to zero) Ave,[3]; [15],15.8%
same,% control Ave,[3]; [15],−22.7%
same,Colbv predicted values Ave,[3]; [15],36.6
same,% control Ave,"[3]; 0.0125 g insecticide/Ha, no herbicide, no AMS",5.5%
same,% control,[3]; [16],68.6% and 52.3% and 68.2% and 65.8% and 35.3%
same,% control Negatives to zero,[3]; [16],68.6% and 52.3% and 68.2% and 65.8% and 35.3%
same,CA Counts,[3]; [16],37 and 49 and 36 and 25 and 48
same,% Control (Negatives to zero) Ave,[3]; [17],58.0%
same,% control Ave,[3]; [17],58.0%
same,Colbv predicted values Ave,[3]; [17],55.3
same,% Control (Negatives to zero) Ave,[3]; [18],14.2%
same,% control Ave,[3]; [18],9.1%
same,Colbv predicted values Ave,[3]; [18],45.2
same,% Control (Negatives to zero) Ave,[3]; [19],37.9%
same,% control Ave,[3]; [19],35.5%
same,Colbv predicted values Ave,[3]; [19],56.9
same,% Control (Negatives to zero) Ave,[3]; [20],36.1%
same,% control Ave,[3]; [20],36.1%
same,Colbv predicted values Ave,[3]; [20],43.6
same,% control Ave,"[3]; 0.05 g insecticide/Ha, no herbicide, no AMS",31.8%
same,% control,[3]; [21],97.5% and 100.0%
same,% control Negatives to zero,[3]; [21],97.5% and 100.0%
same,% Control (Negatives to zero) Ave,[3]; [22],99.5%
same,% control Ave,[3]; [22],99.5%
same,Colbv predicted values Ave,[3]; [22],72.8
same,% control,[3]; [23],89.8% and 96.1% and 76.1% and 91.8% and 96.0%
same,% control Negatives to zero,[3]; [23],89.8% and 96.1% and 76.1% and 91.8% and 96.0%
same,% Control (Negatives to zero) Ave,[3]; [24],90.0%
same,% control Ave,[3]; [24],90.0%
same,Colbv predicted values Ave,[3]; [24],70.5
same,% control,[3]; [25],66.9% and 97.1% and 76.1% and 79.5% and 74.4%
same,% control Negatives to zero,[3]; [25],68.9% and 97.1% and 76.1% and 79.5% and 74.4%
same,Colbv predicted values,[3]; [25],97.5 and 77.2 and 97.3 and 72.7 and 71.7
same,% Control (Negatives to zero) Ave,[3]; [26],78.8%
same,% control Ave,[3]; [26],78.8%
same,Colbv predicted values Ave,[3]; [26],83.3
same,% Control (Negatives to zero) Ave,[3]; [27],60.1%
same,% control Ave,[3]; [27],60.1%
same,Colbv predicted values Ave,[3]; [27],71.5
same,% control Ave,"[3]; 0.2 g insecticide/Ha, no herbicide, no AMS",50.2%
